Read-outs that look alike come from different tables or passages of the source.
Tests used:
[1] = tested on: C57BL/6 mice; assay: Corneal fluorescein staining (NEI grading), dry eye model (CEC + SQ scopolamine); assay type: in vivo, mouse
Method: Six to 10 week old C57BL/6 mice (Taconic Farms, German-town, NY) were used. The protocol was approved by the Schepens Eye Research Institute Animal Care and Use Committee, and all animals were treated according to the ARVO Statement for the Use of Animals in Ophthalmic and Vision Research. […] The controlled-environment chamber: a new mouse model of dry eye. […] Louis, Mo.) was injected SQ in the dorsal skin of mice at 9 am, 12 pm, and 3 pm; the overnight dose at 6 pm was increased to 0.75 mg/0.3 ml. The mice were placed in the CEC where they were continuously exposed to a relative humidity (RH) of <30%, airflow of 15 litres/minute and a constant temperature of 21-23° C. as described previously (Barabino et al, 2005). Dry eye was induced for variable lengths of time, ranging from 2-10 days. […] Formulations tested included a) 0.2% alpha-linolenic acid (ALA, n-3); b) 0.2% linoleic acid (LA, n-6); and c) 0.1% ALA: 0.1% LA (1:1 ratio of n3:n6, total amount of fatty acid being same as in individual fatty acid formulations). […] Forty eight hours after dry eye induction, each eye was randomized to receive one of the formulations, or the vehicle. A 1 ul eye drop was applied topically to the eye of unanaesthetized mouse once daily, from 48 hours to day 4 (total 3 doses) or to day 9 (total 8 doses) depending on the time point studied. The untreated group received no eye drops. Ocular signs of dry eye were measured 24 hours after the last dose (day 5 or day 10) following which mice were euthanized for cellular and molecular studies. […] Eyes were flushed by sterile PBS to remove excess fluorescein at 3 minutes, and examined with a slit lamp biomicroscope in cobalt blue light. Punctate staining was recorded in a masked fashion with a standardized (National Eye Institute) grading system of 0 to 3 for each of the five areas in which the corneal surface was divided. […] Kruskal Wallis and Mann Whitney tests (unpaired data set), and Wilcoxin test (paired data set) were used for statistical analysis.

[2] = tested on: IL-1α; assay: Real time PCR of cytokine transcripts in dry eye cornea and conjunctiva; assay type: in vivo, mouse
Description: (§1) Corneal and conjunctival expression of pro-inflammatory cytokines IL-1α and TNF-α Th1 cytokines (IL-2 and IFN-γ) and Th2 cytokines (IL-4, IL-6 and IL-10), relative to the normal eyes, was studied using quantitative real time PCR. Total RNA was isolated from the whole mount corneal and conjunctival tissues (two pooled corneas per group and six pooled conjunctivae per group). A combined method of total RNA isolation was employed, using Trizol (Invitrogen, CA, catalog #15596-026) for tissue homogenization on ice, precipitation of RNA in the aqueous phase in 70% ethanol followed by subsequent extraction and purification using RNeasy Microkit (Qiagen, CA, catalogue # 74004). Isolated RNA was stored at −80° C. until future use.
(§2) The first strand cDNA was synthesized from 300 ng of total RNA with random hexamers using SuperScript™ III Reverse Transcriptase (Invitrogen, CA, Catalogue #18080) according to the manufacturer's protocol. Real-time PCR was performed with FAM-MGB dye labeled pre-designed primers (Applied Biosystems, CA) for IL-1-α (catalogue # 4329586), TNF-α (Assay ID Mm99999068_ml) and GAPDH (Assay ID Mm99999915_g1), IL-2 (Assay ID […]), IL-4 (Assay ID Mm00445259), IL-6 (Assay ID Mm00446190_ml), IL-10 (Mm00439616_ml), IFN-γ (Assay ID Mm00801778 ml) according to manufacturer's recommendations. 1 ul of cDNA was loaded in each well and assays were performed in duplicates. A nontemplate control was included in all the experiments to evaluate DNA contamination of the isolated RNA and the reagents used. The results of quantitative real-time PCR were analyzed by the comparative threshold cycle (CT) method and normalized by GAPDH as an internal control. The relative expression of cytokines at different times points was compared using one way ANOVA, post hoc test LSD with p<0.05 deemed significant.
(§3) Six to 10 week old C57BL/6 mice (Taconic Farms, German-town, NY) were used. The protocol was approved by the Schepens Eye Research Institute Animal Care and Use Committee, and all animals were treated according to the ARVO Statement for the Use of Animals in Ophthalmic and Vision Research. Dry eye was induced by placement of mice in a CEC as described above, modified with subcutaneous (“SQ”) administration of scopolamine to lead to maximal ocular dryness (Barabino S, Shen L, Chen L, Rashid S, Rolandao M, Dana M R. The controlled-environment chamber: a new mouse model of dry eye. Invest Opthalmol Vis Sci. 2005; 46: 2766-71). Briefly, 0.5 mg/0.2 ml of scopolamine hydrobromide (Sigma-Aldrich, St. Louis, Mo.) was injected SQ in the dorsal skin of mice at 9 am, 12 pm, and 3 pm; the overnight dose at 6 pm was increased to 0.75 mg/0.3 ml. The mice were placed in the CEC where they were continuously exposed to a relative humidity (RH) of <30%, airflow of 15 litres/minute and a constant temperature of 21-23° C. as described previously (Barabino et al, 2005). Dry eye was induced for variable lengths of time, ranging from 2-10 days. Age-matched mice were used as normal controls (RH>80%, no airflow and temperature 21-23° C., no scopolamine administration).
(§4) Forty eight hours after dry eye induction, each eye was randomized to receive one of the formulations, or the vehicle. A 1 ul eye drop was applied topically to the eye of unanaesthetized mouse once daily, from 48 hours to day 4 (total 3 doses) or to day 9 (total 8 doses) depending on the time point studied. The untreated group received no eye drops. Ocular signs of dry eye were measured 24 hours after the last dose (day 5 or day 10) following which mice were euthanized for cellular and molecular studies.

[3] = tested on: TNF-α; assay: as above; assay type: in vivo, mouse
Description: as §1, §2, §3, §4

[4] = tested on: Balb/c mice; assay: Corneal fluorescein staining (NEI grading), dry eye model (CEC + scopolamine patch); assay type: in vivo, mouse; settings: scopolamine alone, Day 3 and Day 6
Description: (§5) Normal healthy 6 to 10 weeks old female Balb/c mice (Taconic Farms, German-town, NY) can be induced to have dry eye by continuously exposing them to dry environment in a controlled environmental chamber (CEC), described below. Mice in CEC were continuously exposed throughout the duration of the experiments, to low relative humidity of less than 30% (mean and standard deviation 19%±4%), high airflow (15 liters/minute) and constant temperature (21-23 Celsius). Mice in normal cages were exposed to relative humidity over 70% (mean and SD 78%±5%), no airflow and same temperature. In addition, the mice placed in CEC were also treated with scopolamine, active agent that causes pharmacological inhibition of tear secretion. […]
The cornea was examined with a slit lamp biomicroscope using cobalt blue light 3 minutes after the fluorescein instillation. Punctuate staining was recorded in a masked fashion using a standardized National Eye Institute (NEI) grading system of 0-3 for each of the five areas in which the corneal surface has been divided (FIG. 2). […]
(§6) Dry eye was induced by combined environmental and pharmacological effect (placing the mice in CEC and applying scopolamine patch for 6 days). […] Signs of dry eye were assessed at the end of Day 6, twelve hours after the last dose. […] […]

[5] = tested on: Balb/c mice; assay: Cotton thread test of tear production, dry eye model (CEC + scopolamine patch); assay type: in vivo, mouse; settings: Scop patch alone for 6 days, Day 3 and Day 6
Description: as §5, with “secretion. The combination of CEC and scopolamine produces severe dry eye.” for “secretion.”
Tear production was measured with cotton thread test, impregnated with phenol red (Zone-Quick, Lacrimedics, Eastsound, Wash.). […] The tear distance in mm is read under a microscope (Zeiss S4, West Germany) using the scale of an hemacytometer. Tear secretion was measured in three groups of mice (FIG. 1). […]
as §6

[6] = tested on: CD11b+ cells

Structure (SMILES): CCCCC/C=C\C/C=C\CCCCCCCC(=O)O [LA, 9,12-octadecandienoic acid]
- corneal fluorescein staining scores compared to vehicle-treated eyes ([1]; day 5): no significant difference
- corneal fluorescein staining scores compared to vehicle and untreated eyes ([1]; day 10): no difference
- IL-1α expression, between untreated, vehicle and treated eyes ([2]; cornea and conjunctiva): No significant difference
- TNF-α expression, between untreated, vehicle and treated eyes ([3]; cornea and conjunctiva): No significant difference

Structure (SMILES): CN1[C@@H]2C[C@@H](OC(=O)[C@H](CO)c3ccccc3)C[C@H]1[C@@H]1O[C@@H]12 [Scop patch, scopolamine]
- corneal fluorescein staining compared to the controls [4]: significant increase
- tear secretion compared to the baseline [5]: markedly decreased

Structure (SMILES): CCC=CCC=CCC=CCCCCCCCC(=O)O [ALA, 9, 12, 15 octadecatrienoic acid]
- decrease in CD11b+ cell number compared to the untreated group ([6]; center of cornea, day 10): 42%
- decrease in CD11b+ cell number compared to the vehicle ([6]; center of cornea, day 10): 37%
- number of CD11b+ cells compared to untreated, vehicle, LA and combined groups ([6]; center of cornea, day 10): significantly decreased
- number of CD11b+ cells relative to normal (non dry eye induced) cornea ([6]; center of whole mount cornea, confocal images): comparable to the normal
- CD11b+ cell number compared to untreated eyes ([6]; periphery of cornea, day 10): significant decrease
- CD11b+ cell number compared to vehicle ([6]; periphery of cornea, day 10): no significant difference
- decrease in CD11b+ cell number compared to the untreated group ([6]; periphery of cornea, day 10): 37%
- decrease in CD11b+ cell number compared to the vehicle ([6]; periphery of cornea, day 10): 21%
- decrease in corneal fluorescein staining scores compared to the vehicle ([1]; day 5, once daily drop from 48 hours): 45%
- decrease in corneal fluorescein staining scores compared to the vehicle ([1]; day 10): 62%
- decrease in corneal fluorescein staining scores compared to untreated control eyes ([1]; day 10): 71%
- conjunctival IL-α expression ([2]; conjunctiva, day 10): downward trend
- corneal IL-1α expression compared to untreated corneas ([2]; cornea, day 10): significant decrease
- conjunctival expression of TNF-α compared to untreated eyes ([3]; conjunctiva, day 10): significantly decreased
- corneal TNF-α expression compared to untreated and vehicle-treated corneas ([3]; cornea, day 5): significant decrease
- corneal TNF-α expression ([3]; cornea, day 10): decreased trend
